# Reference: article PMC12136225, “Antinociceptive effects of intrathecal Neuropeptide B/W receptor 1 agonists in mouse acute nociception, peripheral neuropathy, and inflammatory pain models” (Research Square, 2025)
# Columns and labels:
# [1] = cited from earlier work
# Excerpt: (§1) So far, behavioral studies have mostly been conducted in rats and relied on exogenous administration of endogenous ligands. NPB is a 29 amino acid peptide with a bromine at the C-6 position of the indole moiety in the N-terminal tryptophan (Trp). […] NPW exists in two functional peptide forms consisting of 23 and 30 amino acid residues.
# C57BL/6 mice [2] = test: Carrageenan-induced paw edema (paw thickness, digital caliper); type: in vivo, mouse; conditions: i.t., 1 hour time point, change in paw thickness, n = 8
# Protocol: (§2) NPB-23 ([…]NH2) and RTIBW-16 ([desaminoTrp^1]-Tyr-Lys-Ava-Ava-Ava-Gly-Arg-Ala-Ala-Gly-Leu-Leu-NH2, compound 30 in Ref. [27]) were synthesized as previously reported. RTIBW-16 and NPB-23 were administered via i.t. injections between L4 and L5 vertebrae with an injection volume of 5 μL. The dosing of these compounds was based on previous literature.
# Paclitaxel was purchased from Bio-Techne (Minneapolis, MN) and was administered in a vehicle solution containing a 1:1:18 ratio of ethanol (100%), polyethylene glycol monooleyl ether (Tokyo Chemical Industry America; Portland, OR), and saline (0.9% w/v NaCl) as previously described. […]
# After use in the hot plate latency assay, the same cohort was then used for the carrageen model of inflammatory pain. […] Mice were habituated to the von Frey apparatus and were assessed using the same “up-down” method as described earlier. […] The change in paw thickness from baseline was assessed with digital caliper measurements. Paw thickness and von Frey responses were measured over a 24-hour time course (1, 2, 3, 4, 6, 24 hr timepoints), with paw thickness measurements occurring immediately after the von Frey assay at each time point. […]
# C57BL/6 mice [3] = test: Carrageenan inflammatory pain model, von Frey mechanical allodynia; type: in vivo, mouse; conditions: for Attenuation of carrageenan-induced mechanical allodynia: i.t. 100 μg and 56 μg; for Attenuation of carrageenan-induced mechanical allodynia / Time of delayed-onset partial mechanical allodynia attenuation after administration: von Frey, n = 8; for ED50 Carrageenan von Frey: i.t. injection, 1 hour following treatment, carrageenan-induced mechanical allodynia, n = 8, 95% confidence intervals in parentheses; for Time of delayed-onset partial mechanical allodynia attenuation after administration: i.t. lower doses of 10 μg and 5.6 μg
# Protocol: as §2
# (§3) Paclitaxel was purchased from Bio-Techne (Minneapolis, MN) and was administered in a vehicle solution containing a 1:1:18 ratio of ethanol (100%), polyethylene glycol monooleyl ether (Tokyo Chemical Industry America; Portland, OR), and saline (0.9% w/v NaCl) as previously described. A dosing cycle of paclitaxel consisted of a total of four intraperitoneal (i.p.) paclitaxel injections (8 mg/kg per injection, given every other day. Carrageenan was purchased from Sigma-Aldrich (St. Louis, MO) and made into a 0.3% w/v solution in saline for injections.
# (§4) Intrathecal injections were conducted as previously described; injections occurred between the L4 and L5 vertebrae. Briefly, an ‘injection catheter’ made from a 27-gauge needle and polyethylene (PE) 20 tubing was connected to a 10 μl Hamilton syringe. Injections occurred over 5 sec and were generally accompanied by a hind paw twitch response. A 100% motor recovery rate was observed.
# After use in the hot plate latency assay, the same cohort was then used for the carrageen model of inflammatory pain. Mice were given at least a one-week washout period between experimental use. Mice were habituated to the von Frey apparatus and were assessed using the same “up-down” method as described earlier. The carrageenan inflammatory pain model was induced as previously described. Briefly, an intraplantar injection of 0.3% w/v carrageenan in a 20 μL volume using a 27-gauge needle was administered into the right hind paw. […]. The left paw served as an internal control for each subject. The change in paw thickness from baseline was assessed with digital caliper measurements. Paw thickness and von Frey responses were measured over a 24-hour time course (1, 2, 3, 4, 6, 24 hr timepoints), with paw thickness measurements occurring immediately after the von Frey assay at each time point. Mechanical allodynia assessments and paw thickness measurements were conducted by observers blinded to treatment conditions. Intraplantar administration of carrageenan and digital caliper measurement of paw edema were conducted with mice restrained utilizing a plexiglass mouse restrainer (Stoelting Co., Wood Dale, IL)
# (§5) Hot plate data were converted to percent maximum possible effect (% MPE) with the following equation: ([experimental test value – baseline value) / (30 sec – baseline value)] * 100). Behavioral data were analyzed using a repeated measures two-way analysis of variance (ANOVA) for RTIBW-16 and NPB-23 treatment time course analysis with time as one factor and compound dosing as a second factor [35]. Individual treatment effects were analyzed using repeated measures one-way ANOVA. Dunnett’s test was used for post hoc analysis following a significant ANOVA result. Two tailed, paired t-tests were conducted to compare the magnitude of baseline von Frey measurements to their respective pre-paclitaxel and pre-carrageenan measurements. A p value of < 0.05 was considered statistically significant. As no significant sex effect was observed, male and female data were collapsed. […] When the mean effect of a drug in an experiment was greater than 50%, the ED50 values and corresponding 95% confidence limits were calculated using linear regression, where slopes were allowed to vary. The computer program GraphPad Prism version 10.3 (GraphPad Software Inc.; San Diego, CA) was used in the statistical analyses. Data are plotted as mean ± the standard error of the mean.
# C57BL/6 mice [4] = test: Acute nociception hot plate latency assay; type: in vivo, mouse; conditions: for Duration of significant antinociception after administration / Onset of significant antinociceptive effect / Time of peak antinociceptive effect: i.t. 56 and 100 μg, hot plate, n = 8; for ED50 Hot Plate Latency: i.t. injection, 1 hour following treatment, 52 °C hot plate, % MPE, male and female mice, n = 8, 95% confidence intervals in parentheses
# Protocol: as §2, §4
# Acute nociception measurements were collected via the hot plate latency assay as previously described. Mice were placed on a heated (52 °C) enclosed Hot Plate Analgesia Meter (Columbus Instruments, Columbus, OH). The latency to jump/lick/shake/flick a hind paw was recorded. A 30 second cut-off was used to prevent tissue damage. Latencies were recorded prior to administration of compounds and at each time point over the 24-hour study (0.5, 1, 1.5, 2, 3, 4, 6, 24 hr time points). Latency measurements were taken by observers blinded to treatment conditions. Mice were given a 1-week washout period between test days.
# as §5
# C57BL/6 mice [5] = test: Paclitaxel CIPN model, von Frey mechanical allodynia; type: in vivo, mouse; conditions: for Duration of reversal of mechanical allodynia following treatment: i.t. 100 and 56 μg, paclitaxel CIPN, n = 8
# Protocol: as §2, §3, §4
# To assess mechanical allodynia within CIPN, mice were habituated to the von Frey testing environment for four consecutive days in 30-minute sessions prior to the first testing session. Baselines were measured as previously described using von Frey monofilaments (North Coast Medical; Morgan Hills, CA) to establish responses to light mechanical touch before paclitaxel or vehicle administration. During testing mice were placed atop a wire mesh screen with spaces 0.5 mm apart. Mice were singly placed beneath an inverted wire mesh basket (8 cm diameter, 15 cm height) and allowed to habituate to the apparatus for 30 minutes before testing. The von Frey assay utilizes a series of calibrated monofilaments (0.4–4.0 g stimulus intensity), applied to the left and right plantar surface of the hind paws utilizing the “up-down” method. […] Responses from the von Frey assay were measured over a 24-hour time course (1, 2, 3, 4, 6, 24 hr timepoints). […]
# Hot plate data were converted to percent maximum possible effect (% MPE) with the following equation: ([experimental test value – baseline value) / (30 sec – baseline value)] * 100). Behavioral data were analyzed using a repeated measures two-way analysis of variance (ANOVA) for RTIBW-16 and NPB-23 treatment time course analysis with time as one factor and compound dosing as a second factor [35]. Individual treatment effects were analyzed using repeated measures one-way ANOVA. […]
# NPBWR1 = conditions: NPB-23 ref 24, 25; RTIBW-16 ref 27; cited from earlier work
# Excerpt: as §1
Substance,Metabolic stability in rat plasma [1],Effect on carrageenan-induced paw edema (initial swelling) compared to vehicle (C57BL/6 mice [2]),Attenuation of carrageenan-induced mechanical allodynia (C57BL/6 mice [3]),ED50 Carrageenan von Frey (C57BL/6 mice [3]),Time of delayed-onset partial mechanical allodynia attenuation after administration (C57BL/6 mice [3]),Duration of significant antinociception after administration (C57BL/6 mice [4]),Onset of significant antinociceptive effect (C57BL/6 mice [4]),Time of peak antinociceptive effect (C57BL/6 mice [4]),ED50 Hot Plate Latency (C57BL/6 mice [4]),Duration of reversal of mechanical allodynia following treatment (C57BL/6 mice [5]; von Frey),In vitro NPBWR1 agonist activity compared with NPB (NPBWR1),"ED50 Paclitaxel CIPN von Frey (C57BL/6 mice [5]; i.t. injection, 1 hour following treatment, reversal of paclitaxel-induced mechanical allodynia, n = 8, 95% confidence intervals in parentheses)","Reversal of CIPN mechanical allodynia at 1 hour timepoint (C57BL/6 mice [5]; i.t., von Frey, 1 hour)"
[desaminoTrp^1]-Tyr-Lys-Ava-Ava-Ava-Gly-Arg-Ala-Ala-Gly-Leu-Leu-NH2 [RTIBW-16],improved metabolic stability in rat plasma,significantly reduced the magnitude of initial swelling,fully attenuated peak carrageenan-induced mechanical allodynia,29.47 (21.71–40.00) μg,3 h,2 h,0.5 h,1.5 h,42.86 (25.09–73.21) μg,up to 3 hours,–,–,–
"Trp-Tyr-Lys-Pro-Ala-Ala-Gly-His-Ser-Ser-Tyr-Ser-Val-Gly-Arg-Ala-Ala-Gly-Leu-Leu-Ser-Gly-Leu-NH2 [NPB-23, truncated human NPB without a bromine at the N-terminal Trp residue; NPBWR1 agonist]",–,significantly reduced the magnitude of initial swelling,robust mechanical allodynia blockade,19.92 (13.52–29.35) μg,2 h,up to 6 hours,0.5 h,1.5 h,18.36 (10.17–33.15) μg,up to 2 hours,equipotent,45.06 (33.91–59.88) μg,reverse the CIPN mechanical allodynia back to the baseline
